# Measured values reported in PMC5459853, “Cathepsin S inhibition combines control of systemic and peripheral pathomechanisms of autoimmune tissue injury” (Scientific Reports, 2017).
# Entries after “also recorded” stand apart in the source; their conditions may differ.
# What was measured:
# MRL-(Fas)lpr mice [1] = assay: Experimental lupus nephritis, late onset of treatment week 15 to 19; format: in vivo; conditions: late onset week 15-19
# Method: To further assess the potency of Cat-S inhibition to control advanced lupus nephritis we performed identical experiments with the highest dose of RO5459072 and MMF, which were not initiated before week 15 of age and continued for only 4 weeks and terminated again at week 19.
# (§1) Four-week-old female MRL-(Fas)lpr mice were purchased from Harlan Winkelmann (Borchen, Germany) and kept under pathogen-free conditions in a 12 hour light and dark cycle with free access to food and water. All animal experiments were performed in accordance with the European protection laws of animal welfare, and with approval by the local government authorities Regierung von Oberbayern (reference number: 55.2.1-54-2532.2-11-12). At 11 or 15 weeks of age only mice with proteinuria (Albustix, Bayer AG, Leverkusen, Germany) were randomized into five different groups (n = 10) receiving different medicated diets: Three groups were fed with chow mixed with either 3, 10 or 30 mg/kg/day RO5459072, another group’s chow was mixed with 100 mg/kg/day mycophenolate mofetil (MMF), and one group received a standard diet (vehicle). The dose of MMF was chosen according to several studies reporting strong efficacy on SLE and lupus nephritis in MRL-(Fas)lpr mice[24]–[26]. […] At the age of 19 weeks all mice were sacrificed by cervical dislocation. Blood and urine samples were collected at different time points as indicated. In other experiments 7 week old female MRL-(Fas)lpr mice were randomized into three groups (n = 3) to receive a single intravenous injection of 10 µg sterile recombinant Cat-S and one group receiving vehicle (100 µl sterile PBS). One of the Cat-S groups was pretreated with 30 mg/kg/day RO5459072 starting one week prior to Cat-S injection; another group was pretreated with a total of four daily intra-peritoneal injections of the PAR-2 inhibitor GB83 (10 mg/kg).
# Kidney tissue samples were collected from all mice and fixed overnight in 4% buffered formalin. Subsequently the fixed tissue samples were embedded in paraffin and cut into 4 µm thick serial sections. Kidney paraffin sections were stained with periodic acid-Schiff (PAS) reaction using standardized protocols as described. Scoring of lupus nephritis activity and chronicity indices was performed according to human lupus nephritis, [43]. Methenamine silver staining was performed on paraffin embedded kidney sections and semiquantitatively scored form 0–3 by a blinded observer. For immunostaining the following primary antibodies were used: anti-mouse CD3 (Abcam, Cambridge, UK), complement C3c (Biobyt Ltd, Cambridge, UK), CD31 (Dianova GmbH, Hamburg, Germany), WT1 (Santa Cruz Biotechnology, Dallas, Texas) and nephrin (Acris Antibodies, San Diego, CA). The immunostaining for C3c and CD31 were analyzed using the ImageJ software by measuring positively stained area and dividing it by the total area of the glomerulus and reported as percentage of +ve area. Sections stained for WT1/nephrin and CD3 were evaluated by counting positive cells per glomerulus. All the morphometric analysis were carried out in a blinded fashion.
# (§2) Urinary albumin/creatinine ratios were determined using the Mouse Albumin ELISA Quantitation set (Bethyl Laboratories, Montgomery, TX) and the Creatinine FS kit (DiaSys Diagnostic Systems, Holzheim, Germany)[44]. BUN levels were determined in plasma samples using a Urea FS kit (DiaSys Diagnostic Systems). Mouse IgM, IgG and its isotypes IgG1, IgG2a and IgG2b plasma levels were measured using ELISA Sets (Bethyl Laboratories) at a plasma dilution of 1:1,000 to 1:100,000. Double-stranded DNA IgG and IgM antibodies were quantified as described. Briefly, 96 well Nunc-Immuno plates (Thermo Fisher Scientific, Roskilde, Denmark) were coated with poly-L-lysine (1:1 diluted with PBS) and incubated for two hours. After washing the plates, the plates were coated with 1 µg/ml mouse tail dsDNA sparing the wells for standards, which were coated with anti-mIgG and anti-mIgM (Bethyl Laboratories). […]
# Human Cat-S = Human Cat-S (Homo sapiens, UniProt P25774); assay: Enzymatic isoform-selectivity assay, human Cat-S; format: biochemical; conditions: read-out: apparent IC50, human Cat-S
# Human Cat-S, sequence (P25774 115-331): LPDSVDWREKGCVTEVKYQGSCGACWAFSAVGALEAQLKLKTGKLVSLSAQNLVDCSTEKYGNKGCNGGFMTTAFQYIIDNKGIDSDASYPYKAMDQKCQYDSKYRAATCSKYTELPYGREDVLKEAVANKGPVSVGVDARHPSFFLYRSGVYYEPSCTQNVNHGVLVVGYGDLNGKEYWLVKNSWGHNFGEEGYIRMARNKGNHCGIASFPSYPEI
# Method: RO5459072 was provided by F. Hoffmann-La Roche, Ltd., Basel, Switzerland. It is a competitive inhibitor of the active site of Cat-S and its nitrile function allows covalent reversible inhibition of Cat-S. The synthesis of RO5459072 has been described in WO 2010121918 and WO 2013068434. Recombinant cathepsins were produced in-house or were purchased from commercial vendors. Initial enzymatic assays to determine isoform-selectivity in vitro were performed as previously described, [23]. […] For this the Cat-S-dependent hydrolysis of the fluorogenic substrate Z-Phe-Arg-AMC (Sigma Aldrich) was followed at various inhibitor concentrations. The active fraction of Cat-S was detemined as 70% with a HPLC assay measuring modification of Cat-S with the covalent inhibitor LHVS. The buffer (100 mM potassium phosphate, 50 mM NaCl, 5 mM EDTA, 5 mM TCEP, pH 6) was thoroughly degassed prior to perfoming measurements to prevent oxidation of the catalytic cystein residue by dissolved oxygen. For the Ki-determination the substrate was employed at 10 µM = KM. All kinetic measurements were performad on a SFM-3000 stopped-flow instrument (Bio-Logic Science Instruments) and data were analyzed with GraphPad Prism v5.
# MRL-(Fas)lpr mice [2] = assay: Intravenous recombinant Cat-S injection: albuminuria and glomerular ultrastructure (TEM); format: in vivo; conditions: 10 µg recombinant Cat-S i.v.
# Method: as §1
# as §2, with “[…] Absorbance was measured at 450 nm using a Tecan Microplate Reader (Biotek, Winnoski, VT). Indirect immunofluorescence was used to quantify ANA in” for “After washing the plates, the plates were coated with 1 µg/ml”, “plasma.” for “tail dsDNA sparing the wells for standards, which were coated with anti-mIgG and anti-mIgM (Bethyl Laboratories).”
# Mouse kidney tissue was fixed in 2% paraformaldehyde/2% glutaraldehyde and 0.1M sodium phosphate buffer (pH 7.4) for 24 hours and processed as described. Samples were analyzed with a 1200EX electron microscope (JEOL, Tokyo, Japan).
smiles,measurement,setting,value
Cn1cc(-c2ccc(S(=O)(=O)[C@@H]3C[C@@H](C(=O)NC4(C#N)CC4)N(C(=O)C4(C(F)(F)F)CC4)C3)c(C(F)(F)F)c2)cn1 [RO5459072],lupus nephritis disease activity index,MRL-(Fas)lpr mice [1],significantly reduced
same,lupus nephritis disease chronicity index,MRL-(Fas)lpr mice [1],failed to significantly suppress
same,proteinuria and BUN at week 19 compared to control mice,MRL-(Fas)lpr mice [1],significantly reduced
same,plasma IgG and its isotypes and anti-dsDNA IgG,"MRL-(Fas)lpr mice [1]; highest dose of RO5459072, MMF",significantly suppressed
same,IC50,Human Cat-S,0.1 nM
same,Cat-S-induced albuminuria,"MRL-(Fas)lpr mice [2]; 30 min, RO5459072 30 mg/kg/day pretreatment, GB83 10 mg/kg i.p.",completely prevented; also recorded: entirely blocked
same,Cat-S-induced glomerular endothelial cell injury (TEM),MRL-(Fas)lpr mice [2]; 24 h,completely prevented
